# Source: ChEMBL document CHEMBL1158520, “Aryl- and heteroaryl-substituted aminobenzo[a]quinolizines as dipeptidyl peptidase IV inhibitors” (Bioorg Med Chem Lett, 2010)
# Legend:
# Phospholipidosis = assay: Minimal effective concentration for in vitro drug-induced phospholipidosis in fibroblasts; type: ADME, cell-based; conditions: fibroblast
# [1] = Distribution coefficient, log D at pH 7.4; type: physicochemical; conditions: octanol/water
# Dipeptidyl peptidase 4 = Dipeptidyl peptidase 4 (Homo sapiens, UniProt P27487); assay: Inhibition of DPP4
# [2] = Volume of distribution at steady state in Wistar rat at 1 mg/kg, iv; type: ADME, organism-based; parameters: dose 1 mg/kg, route intravenous; conditions: in vivo, read-out: Vdss
# [3] = Half life in Wistar rat at 1 mg/kg, iv; type: ADME, organism-based; parameters: dose 1 mg/kg, route intravenous; conditions: in vivo
# [4] = Clearance in Wistar rat at 1 mg/kg, iv; type: ADME, organism-based; parameters: dose 1 mg/kg, route intravenous; conditions: in vivo
# [5] = Ratio of drug level in brain to plasma of Wistar rat; type: ADME
# Rattus norvegicus [6] = assay: Reduction of blood glucose level in Zucker fatty (fa/fa) rat at 0.3 mg/kg, po administered 2 hrs before glucose challenge measured after 40 mins glucose challenge by oral glucose tolerance test; type: functional; parameters: scale not given: the % may be the effect or the level left
# [7] = Oral bioavailability in Wistar rat at 3 mg/kg; type: ADME, organism-based; conditions: in vivo
# Rattus norvegicus [8] = assay: Reduction of blood glucose level in po dosed Zucker fatty (fa/fa) rat administered 2 hrs before glucose challenge measured after 40 mins glucose challenge by oral glucose tolerance test; type: functional, organism-based
# [9] = Mutagenic activity in Salmonella Typhimurium; type: toxicity; conditions: salmonella enterica subsp. enterica serovar typhimurium
# Chain of Dipeptidyl peptidase 4 (P27487 whole entry): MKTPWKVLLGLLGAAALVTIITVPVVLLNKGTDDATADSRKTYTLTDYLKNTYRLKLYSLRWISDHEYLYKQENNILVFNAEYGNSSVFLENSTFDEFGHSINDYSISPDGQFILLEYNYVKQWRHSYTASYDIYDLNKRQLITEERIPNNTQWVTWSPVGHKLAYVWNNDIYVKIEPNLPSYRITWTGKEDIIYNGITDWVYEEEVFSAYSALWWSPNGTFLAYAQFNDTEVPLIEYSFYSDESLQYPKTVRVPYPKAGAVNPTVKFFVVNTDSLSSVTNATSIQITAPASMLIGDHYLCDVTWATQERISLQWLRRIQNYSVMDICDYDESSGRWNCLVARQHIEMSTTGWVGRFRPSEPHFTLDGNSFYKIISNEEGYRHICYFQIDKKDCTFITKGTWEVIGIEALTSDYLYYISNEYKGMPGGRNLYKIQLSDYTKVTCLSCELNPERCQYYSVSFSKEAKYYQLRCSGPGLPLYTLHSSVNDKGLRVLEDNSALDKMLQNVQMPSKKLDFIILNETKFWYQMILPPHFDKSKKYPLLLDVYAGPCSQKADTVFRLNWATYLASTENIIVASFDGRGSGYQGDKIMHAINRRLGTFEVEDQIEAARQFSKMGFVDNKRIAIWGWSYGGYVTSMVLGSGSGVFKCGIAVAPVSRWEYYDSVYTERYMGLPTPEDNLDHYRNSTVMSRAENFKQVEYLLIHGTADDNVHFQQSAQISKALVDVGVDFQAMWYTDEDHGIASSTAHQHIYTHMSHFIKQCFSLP
logD [1],IC50 (Dipeptidyl peptidase 4) [nM],Compound,further results
0.3,19,COc1cc2c(cc1OC)[C@@H]1CC(N)[C@@H](c3cc(C)ccn3)CN1CC2 (mixture of isomers),Phospholipidosis_MEC (Phospholipidosis): 15 µM
1.7,61,CCc1cccc([C@H]2CN3CCc4cc(OC)c(OC)cc4[C@@H]3CC2N)c1 (mixture of isomers),
1.6,1.7,COc1cc2c(cc1OC)[C@@H]1CC(N)[C@@H](c3cc(C)ccc3C)CN1CC2 (mixture of isomers),
,53000,COc1cc2c(cc1OC)[C@H]1C[C@@H](N)[C@H](c3cc(C)ccn3)CN1CC2,
1.3,,COc1cc2c(cc1OC)[C@@H]1CC(N)[C@@H](c3cccc(C)c3)CN1CC2 (mixture of isomers),Vd [2]: 42 L/kg; half-life [3]: 6.9 h; clearance [4]: 87 mL/min/kg; Kp [5]: 5.8; Phospholipidosis_MEC (Phospholipidosis): 2.5 µM; Activity (Rattus norvegicus [6]): 41%; bioavailability [7]: 56%
,11,COc1cc2c(cc1OC)[C@@H]1C[C@H](N)[C@@H](c3cc(C)ccn3)CN1CC2,Activity (Rattus norvegicus [8]): Dose-dependent effect; Vd [2]: 12 L/kg; half-life [3]: 1.4 h; clearance [4]: 118 mL/min/kg; Kp [5]: 0.7; bioavailability [7]: 50%
1.6,,COc1cc2c(cc1OC)[C@@H]1CC(N)[C@@H](c3cccc(CF)c3)CN1CC2 (mixture of isomers),
0.8,,COc1cc2c(cc1OC)[C@@H]1CC(N)[C@@H](c3ccccc3)CN1CC2 (mixture of isomers),Phospholipidosis_MEC (Phospholipidosis): 5 µM
2,5500,COc1cc2c(cc1OC)[C@@H]1CC(N)[C@@H](c3cccc(C(C)C)c3)CN1CC2 (mixture of isomers),
0.1,1.2,COc1cc2c(cc1OC)[C@@H]1CC(N)[C@@H](c3cc(CF)ccn3)CN1CC2 (mixture of isomers),Activity [9]: Toxic
1.7,,COc1cc2c(cc1OC)[C@@H]1CC(N)[C@@H](c3cccc(Cl)c3)CN1CC2 (mixture of isomers),
1.8,38,COc1cc2c(cc1OC)[C@@H]1CC(N)[C@@H](c3cccc(C4CC4)c3)CN1CC2 (mixture of isomers),
